Counter-ions that a name gives are not always drawn.
Target: T1, Nav1.7 (or SCN9A) channel (Homo sapiens, UniProt Q15858)
T1 construct: expressed in transfected cells
Assay: Nav1.7 (hSCN9A) electrophysiology assay, PatchXpress platform
Assay type: cell-based
Settings: estimated IC50 from single point electrophysiology data, HEK cells stably expressing hSCN9A, held at V1/2 of inactivation, read-out: Nav1.7 EIC50
Procedure: The ability of the compounds of formula (I) to block the Nav1.7 (or SCN9A) channel were measured using the assay described below.
Human Embryonic Kidney (HEK) cells were transfected with an hSCN9A construct using lipofectamine reagent (Invitrogen), using standard techniques. Cells stably expressing the hSCN9A constructs were identified by their resistance to G-418 (400 μg/ml). Clones were screened for expression using the whole-cell voltage-clamp technique.
HEK cells stably transfected with hSCN9A were maintained in DMEM medium supplemented with 10% heat-inactivated fetal bovine serum and 400 μg/ml G-418 in an incubator at 37° C. with a humidified atmosphere of 10% CO2. For HTS, cells were harvested from flasks by trypsinization and replated in an appropriate multi-well plate (typically 96 or 384 wells/plate) such that confluence would be achieved within 24 hours of plating. For electrophysiological studies, cells were removed from the culture flask by brief trypsinization and re-plated at low density onto glass cover slips. Cells were typically used for electrophysiological experiments within 24 to 72 hours after plating.
Cover slips containing HEK cells expressing hSCN9A were placed in a bath on the stage of an inverted microscope and perfused (approximately 1 ml/minutes) with extracellular solution of the following composition: 138 mM NaCl, 2 mM CaCl2, 5.4 mM KCl, 1 mM MgCl2, 10 mM glucose, and 10 mM HEPES, pH 7.4, with NaOH. […] The osmolarity of the extracellular and intracellular solutions was 300 mOsm/kg and 295 mOsm/kg, respectively. All recordings were made at room temperature (22-24° C.) using AXOPATCH 200B amplifiers and PCLAMP software (Axon Instruments, Burlingame, Calif.).
hSCN9A currents in HEK cells were measured using the whole-cell configuration of the patch-clamp technique (Hamill et al., 1981). Uncompensated series resistance was typically 2 to 5 mega ohms and >85% series resistance compensation was routinely achieved. […] Current records were acquired at 20 to 50 KHz and filtered at 5 to 10 KHz.
HEK cells stably transfected with hSCN9A were viewed under Hoffman contrast optics and placed in front of an array of flow pipes emitting either control or compound-containing extracellular solutions. All compounds were dissolved in dimethyl sulfoxide to make 10 mM stock solutions, which were then diluted into extracellular solution to attain the final concentrations desired. […] The voltage-dependence of inactivation was determined by applying a series of depolarizing prepulses (8 sec long in 10 mV increments) from a negative holding potential. The voltage was then immediately stepped to 0 mV to assess the magnitude of the sodium current. Currents elicited at 0 mV were plotted as a function of prepulse potential to allow estimation of the voltage at which 50% of the channels were inactivated (midpoint of inactivation or V1/2). Compounds were tested for their ability to inhibit hSCN9A sodium channels by activating the channel with a 20 msec voltage step to 0 mV following an 8 second conditioning prepulse to the empirically determined V1/2. Compound effect (% inhibition) was determined by difference in current amplitude before and after application of test compounds. […] Inhibition values <20% and >80% were excluded from the calculation.
Electrophysiological assays were conducted with PatchXpress 7000 hardware and associated software (Molecular Devices Corp). All assay buffers and solutions were identical to those used in conventional whole-cell voltage clamp experiments described above. hSCN9A cells were grown as above to 50%-80% confluency and harvested by trypsinization. Trypsinized cells were washed and resuspended in extracellular buffer at a concentration of 1×10^6 cells/ml. The onboard liquid handling facility of the PatchXpress was used for dispensing cells and application of test compounds.

T1 sequence (Q15858 whole entry): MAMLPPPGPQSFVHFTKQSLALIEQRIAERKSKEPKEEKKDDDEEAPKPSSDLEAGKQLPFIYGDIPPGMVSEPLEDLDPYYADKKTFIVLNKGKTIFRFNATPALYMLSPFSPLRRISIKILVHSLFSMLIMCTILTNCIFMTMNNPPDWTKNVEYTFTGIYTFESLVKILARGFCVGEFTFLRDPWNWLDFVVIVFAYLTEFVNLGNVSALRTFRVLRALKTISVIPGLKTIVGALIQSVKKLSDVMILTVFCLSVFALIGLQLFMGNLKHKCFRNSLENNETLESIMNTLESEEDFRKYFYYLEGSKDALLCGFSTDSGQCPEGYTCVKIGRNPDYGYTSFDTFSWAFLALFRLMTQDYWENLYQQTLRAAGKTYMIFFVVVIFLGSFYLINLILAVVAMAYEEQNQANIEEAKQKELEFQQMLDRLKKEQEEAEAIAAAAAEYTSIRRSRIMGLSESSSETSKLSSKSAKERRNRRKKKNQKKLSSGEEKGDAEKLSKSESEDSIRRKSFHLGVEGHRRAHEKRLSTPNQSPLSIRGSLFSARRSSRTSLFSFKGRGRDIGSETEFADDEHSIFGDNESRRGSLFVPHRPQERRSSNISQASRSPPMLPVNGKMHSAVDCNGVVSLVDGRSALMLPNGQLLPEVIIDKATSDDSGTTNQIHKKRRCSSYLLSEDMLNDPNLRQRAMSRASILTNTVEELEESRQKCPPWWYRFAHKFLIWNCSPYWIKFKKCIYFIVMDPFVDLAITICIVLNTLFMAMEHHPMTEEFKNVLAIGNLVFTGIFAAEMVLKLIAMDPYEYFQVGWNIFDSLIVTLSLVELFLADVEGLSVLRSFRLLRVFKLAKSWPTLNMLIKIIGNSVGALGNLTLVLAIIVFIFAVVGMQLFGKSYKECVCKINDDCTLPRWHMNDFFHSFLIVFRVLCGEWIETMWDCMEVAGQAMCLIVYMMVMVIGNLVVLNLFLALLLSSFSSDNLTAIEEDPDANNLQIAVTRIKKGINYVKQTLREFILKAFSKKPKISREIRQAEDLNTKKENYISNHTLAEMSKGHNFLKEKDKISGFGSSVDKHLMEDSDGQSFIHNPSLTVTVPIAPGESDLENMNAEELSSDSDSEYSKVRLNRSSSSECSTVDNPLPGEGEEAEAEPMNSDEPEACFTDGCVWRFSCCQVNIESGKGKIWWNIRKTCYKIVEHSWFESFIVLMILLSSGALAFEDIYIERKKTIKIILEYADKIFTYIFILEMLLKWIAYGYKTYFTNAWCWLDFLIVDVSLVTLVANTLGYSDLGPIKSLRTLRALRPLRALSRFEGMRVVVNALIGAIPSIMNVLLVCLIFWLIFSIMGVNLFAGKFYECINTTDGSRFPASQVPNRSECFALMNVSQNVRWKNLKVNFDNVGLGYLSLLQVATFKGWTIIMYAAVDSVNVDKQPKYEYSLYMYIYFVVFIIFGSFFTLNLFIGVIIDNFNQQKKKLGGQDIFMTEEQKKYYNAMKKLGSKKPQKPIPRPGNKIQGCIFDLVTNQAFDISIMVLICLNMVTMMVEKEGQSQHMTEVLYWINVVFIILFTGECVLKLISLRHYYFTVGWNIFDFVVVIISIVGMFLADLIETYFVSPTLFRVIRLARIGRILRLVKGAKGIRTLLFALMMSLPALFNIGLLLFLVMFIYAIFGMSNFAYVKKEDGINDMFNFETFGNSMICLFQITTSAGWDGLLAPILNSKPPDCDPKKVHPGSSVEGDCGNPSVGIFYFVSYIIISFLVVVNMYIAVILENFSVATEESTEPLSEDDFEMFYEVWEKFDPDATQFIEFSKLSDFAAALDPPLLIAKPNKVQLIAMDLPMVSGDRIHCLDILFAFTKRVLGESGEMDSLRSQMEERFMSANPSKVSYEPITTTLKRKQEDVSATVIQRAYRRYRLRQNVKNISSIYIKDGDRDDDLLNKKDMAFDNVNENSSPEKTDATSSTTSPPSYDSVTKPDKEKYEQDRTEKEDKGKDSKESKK

Row | IC50 [nM] | SMILES
1 | 64 | CS(=O)(=O)NC(=O)c1cc(F)c(COc2ccc(C(F)(F)F)c(Cl)c2)cc1F [Example 2, 4-{[3-Chloro-4-(trifluoromethyl)phenoxy]methyl}-2,5-difluoro-N-(methylsulfonyl)benzamide]
2 | 290 | CS(=O)(=O)NC(=O)c1ccc(OCc2ccc(Cl)c(Cl)c2)cc1 [Example 3]
3 | 1200 | Cn1nc(C(F)(F)F)cc1-c1ccc(OCc2ccc(C(=O)NS(C)(=O)=O)cc2)cc1 [Example 4, N-(Methylsulfonyl)-4-({4-[1-methyl-3-(trifluoromethyl)-1H-pyrazol-5-yl]phenoxy}methyl)benzamide diethylamine salt]
4 | 1700 | CS(=O)(=O)NC(=O)c1ccc(OCc2cccc3ccccc23)c(C#N)c1 [Example 5, 3-Cyano-N-(methylsulfonyl)-4-(1-naphthylmethoxy)benzamide]
5 | 1300 | CS(=O)(=O)NC(=O)c1ccc(OCc2ccccc2OC(F)(F)F)c(Cl)c1 [Example 6, 3-Chloro-N-(methylsulfonyl)-4-{[2-(trifluoromethoxy)benzyl]oxy}benzamide]
6 | 6900 | COc1cccc(OCc2ccc(C(=O)NS(C)(=O)=O)cc2)c1 [Example 8, 4-[(3-Methoxyphenoxy)methyl]-Nethylsulfonyl)benzamide diethylamine salt]
7 | 670 | CS(=O)(=O)NC(=O)c1cc(F)c(OCc2ccc(Cl)c(Cl)c2)cc1F [Example 9, 4-[(3,4-Dichlorobenzyl)oxy]-2,5-difluoro-N-(methylsulfonyl)benzamide]
8 | 1500 | CS(=O)(=O)NC(=O)c1cc(F)c(OCc2ccc(C(F)(F)F)c(Cl)c2)cc1F [Example 10, 4-(3-Chloro-4-(trifluoromethyl)benzyloxy)-2,5-difluoro-N-(methylsulfonyl)benzamide]
9 | 12000 | COc1cc(OCc2ccc(Cl)c(Cl)c2)ccc1C(=O)NS(C)(=O)=O [Example 12, 4-[(3,4-Dichlorobenzyl)oxy]-2-methoxy-N-(methylsulfonyl)benzamide]
10 | 8100 | COc1ccccc1OCc1cc(F)c(C(=O)NS(C)(=O)=O)cc1F [Example 14, 2,5-Difluoro-4-((2-methoxyphenoxy)methyl)-N-(methylsulfonyl)benzamide]
11 | 1700 | COc1cc(Cl)ccc1OCc1cc(F)c(C(=O)NS(C)(=O)=O)cc1F [Example 15, 4-((4-Chloro-2-methoxyphenoxy)methyl)-2,5-difluoro-N-(methylsulfonyl)benzamide Diethylamine salt]
12 | 760 | CS(=O)(=O)NC(=O)c1ccc(COc2cccc(Cl)c2)cc1 [Example 16, 4-((3-Chlorophenoxy)methyl)-N-(methylsulfonyl)benzamide Diethylamine salt]
13 | 8400 | CS(=O)(=O)NC(=O)c1ccc(COc2ccc(C#N)cc2)cc1 [Example 17, 4-((4-Cyanophenoxy)methyl)-N-(methylsulfonyl)benzamide]
14 | 930 | CS(=O)(=O)NC(=O)c1ccc(COc2ccc(Cl)cc2)cc1 [Example 18, 4-((4-Chlorophenoxy)methyl)-N-(methylsulfonyl)benzamide Diethylamine salt]
15 | 58 | COc1cc(C(=O)NS(C)(=O)=O)ccc1COc1ccc(Cl)c(Cl)c1 [Example 19, 4-((3,4-Dichlorophenoxy)methyl)-3-methoxy-N-(methylsulfonyl)benzamide]
16 | 2400 | CS(=O)(=O)NC(=O)c1ccc(OCc2ccccc2)cc1 [Example 20, 4-(Benzyloxy)-N-(methylsulfonyl)benzamide Diethylamine salt]
17 | 710 | CS(=O)(=O)NC(=O)c1ccc(OCc2cccc(Br)c2)cc1 [Example 21, 4-(3-Bromobenzyloxy)-N-(methylsulfonyl)benzamide]

Row | SMILES | IC50 [nM]
18 | CS(=O)(=O)NC(=O)c1cc(Cl)c(COc2ccc(Cl)c(Cl)c2)cc1F [Example 1, 5-Chloro-4-[(3,4-dichlorophenoxy)methyl]-2-fluoro-N-(methylsulfonyl)benzamide] | 9.5

Source: patent US9096500B2, “Acyl sulfonamide compounds” (Pfizer Limited, priority 2010, dated 2015)
